Measurements from patent US11291947B2, “Composition for removing sulfur-containing compound” (KURARAY CO., LTD., priority 2016, dated 2022).
Where two headings read alike, the source gives them in different places.

Tests used:
[1] = Hydrogen sulfide removal in distilled water (autoclave); settings: distilled water, 5,000 ppm added, 80° C., 5 hours
Protocol: 20 g of distilled water was put into a 100-mL autoclave equipped with a thermometer and a stirrer, and pressurized up to 0.3 MPa with a mixed gas having a composition of 1 vol % of hydrogen sulfide and 99 vol % of nitrogen introduced thereinto. This was stirred until the hydrogen sulfide concentration in the vapor phase part became constant, and then the hydrogen sulfide concentration in the vapor phase part in the autoclave was measured with a Kitagawa gas detector (here, a […] available from Komyo Rikagaku Kogyo K.K. was attached to the gas collector “AP-20”), and was 7,500 ppm by volume. Next, SAL was added thereto in an amount to be 5,000 ppm relative to the distilled water. The amount of SAL added was 1.19 mmol, and the amount of hydrogen sulfide existing in the apparatus was 0.10 mmol. Subsequently, the apparatus was heated up to 80° C. with stirring at 800 rpm to continue the reaction for 5 hours. After the reaction, the system was cooled down to room temperature, and the hydrogen sulfide concentration in the vapor phase part was measured and was 5,000 ppm by volume. The removal rate was 33%.
The same test as in Example 2 was carried out except that acrolein was used in place of SAL. After the reaction, the hydrogen sulfide concentration in the vapor phase part was measured and was 5,000 ppm by volume. The removal rate was 33%.

[2] = type: physicochemical
Protocol: 50 mL of each of SAL and acrolein was charged in 50-mL three-necked flask, and the contents were subjected to temperature rise to 50° C. in a nitrogen atmosphere. On the occasion when the content of each of SAL and acrolein immediately after the temperature rise was defined as 100%, a change of the content ratio was observed according to the calibration curve method by means of gas chromatography with an internal standard.
[Gas Chromatography Analysis]
Analysis Instrument: GC-14A (Available from Shimadzu Corporation) Detector: FID (Hydrogen Flame Ionization Detector)
Column used: DB-1701 (length: 50 m, film thickness: 1 μm, inner diameter: 0.32 mm) (available from Agilent Technologies)
Analysis conditions: Injection temperature: 250° C., detection temperature: 250° C.
Temperature rise conditions: 70° C.→(temperature rise at 5° C./min)→250° C.
Internal standard substance: Diglyme (diethylene glycol dimethyl ether)

[3] = cited from earlier work
[4] = type: physicochemical; settings: pH 1.7
Protocol: Each of SAL and acrolein was dissolved in 0.5 mol/L of phosphoric acid buffer solutions having a pH different from each other, thereby preparing 0.1 wt % solutions. 50 mL of each of the solutions was charged in a sample vial in a nitrogen atmosphere and stored at 23±2° C. On the occasion when the content of each of SAL and acrolein at the time of preparation was defined as 100%, a change of the content ratio was observed according to the absolute calibration curve by means of high-performance liquid chromatography analysis.
[Preparation of Phosphoric Acid Buffer Solution]
pH 1.7: 4.9 g of 75% phosphoric acid and 7.8 g of sodium dihydrogen phosphate dihydrate were dissolved in 200 mL of distilled water.
pH 6.2: 7.8 g of sodium dihydrogen phosphate dihydrate and 7.1 g of disodium hydrogen phosphate were dissolved in 200 mL of distilled water.
pH 8.1: 0.3 g of sodium dihydrogen phosphate dihydrate and 13.9 g of disodium hydrogen phosphate were dissolved in 200 mL of distilled water.
[High-Performance Liquid Chromatography Analysis]
Analysis Instrument: Prominence System (Available from Shimadzu Corporation)
Column used: Cadenza CD-C18 (length: […], inner diameter: 4.6 mm)
Developing solution: H2O/MeOH=45/55 (volume ratio), H3PO4=1 mol/L

[5] = Hydrogen sulfide removal in kerosene (three-neck flask); settings: 20 g kerosene, 1.5 g added, room temperature, 5 hours
Protocol: 20 g of kerosene (available from FUJIFILM Wako Pure Chemical Corporation) was put into a 50-mL three-neck flask, and a mixed gas having a composition of 1 vol % of hydrogen sulfide and 99 vol % of nitrogen was made to circulate therein at a flow rate of 50 mL/min to thereby purge the vapor in the three-neck flask with stirring at 800 rpm. After 2 hours, the circulation of the mixed gas was stopped, then the three-neck flask was sealed up, and the hydrogen sulfide concentration in the vapor phase part in the three-neck flask was measured with a Kitagawa gas detector and was 8,200 ppm by volume. Next, 1.5 g of SAL was added thereto and reacted for 5 hours at room temperature with stirring the apparatus at 800 rpm. After the reaction, the hydrogen sulfide concentration in the vapor phase part in the three-neck flask was measured and was 5,300 ppm by volume. The removal rate was 35%.
After the reaction, the hydrogen sulfide concentration in the vapor phase part in the three-neck flask was measured and was 6,600 ppm by volume. The removal rate was 20%.

Rat = settings: versus acrolein; cited from earlier work
[6] = 50° C., nitrogen atmosphere, 0 hour (defined as 100%)
[7] = 50° C., nitrogen atmosphere, 2 hours elapsed
[8] = 50° C., nitrogen atmosphere, 4 hours elapsed
[9] = 50° C., nitrogen atmosphere, 6 hours elapsed
[10] = 50° C., nitrogen atmosphere, 10 hours elapsed

`C=CC=O` [Acrolein, acrolein, reference compound] showed a removal rate [1] of 33%, a content ratio [2, 6] of 100.0% and a content ratio [2, 7] of 99.5%. The content ratio [2, 8] was 98.3%, the content ratio [2, 9] was 98.1% and the content ratio [2, 10] was 96.6%. For the same molecule, the ratio lost ([2]; 50° C., nitrogen atmosphere, after 10 hours) was 3.4% and the “Fire Service Act water solubility class” value [3] was “water-insoluble”.
For `CC(C)=CC=O` [SAL, 3-methyl-2-butenal], the removal rate [1] was 33%, the “pH stability (comparison in words)” value [4] was “extremely high in the pH stability as compared with acrolein” and the “thermal stability (comparison in words)” value [2] was “extremely high in the thermal stability as compared with acrolein”. For the same molecule, the content ratio [2, 6] was 100.0%, the content ratio [2, 7] was 100.0% and the content ratio [2, 8] was 100.0%. The content ratio [2, 9] was 100.0%, the content ratio [2, 10] was 99.9% and the removal rate [5] was 35%. The “Fire Service Act water solubility class” value [3] was “water-insoluble” and the “toxicity and safety (comparison in words)” value (Rat) was “extremely low in the toxicity and safe as compared with acrolein”.
For `CC(C)=CCCC(C)=CC=O` [Citral, 3,7-dimethyl-2,6-octadienal], the removal rate [5] is given as 20% and the “toxicity and safety (comparison in words)” value (Rat) is given as “extremely low in the toxicity and safe as compared with acrolein”.
